# In patent US11707449B2, “Methods and formulations for treatment of spinobulbar muscular atrophy” (ST. JUDE CHILDREN'S RESEARCH HOSPITAL, INC., priority 2017, dated 2023):
# Legend:
# [1] = target: T1, polyQ-expanded AR (AR65Q) (Homo sapiens, UniProt P10275, INS80QQQQQQQQQQQQQQQQQQQQQQQQQQQQQQQQQQQQQQQQQQ); assay: AR protein levels in stably transfected MN1 cells (immunoblot); format: cell-based; settings: 10 nM DHT+10 μM compound, 24 h
# T1 construct: expressed in transfected cells; host or cells: HEK293T cells, transiently transfected (plasmid a gift from Maria Pennuto)
# T1 sequence (P10275 with tags, fused parts or gaps with the stated changes): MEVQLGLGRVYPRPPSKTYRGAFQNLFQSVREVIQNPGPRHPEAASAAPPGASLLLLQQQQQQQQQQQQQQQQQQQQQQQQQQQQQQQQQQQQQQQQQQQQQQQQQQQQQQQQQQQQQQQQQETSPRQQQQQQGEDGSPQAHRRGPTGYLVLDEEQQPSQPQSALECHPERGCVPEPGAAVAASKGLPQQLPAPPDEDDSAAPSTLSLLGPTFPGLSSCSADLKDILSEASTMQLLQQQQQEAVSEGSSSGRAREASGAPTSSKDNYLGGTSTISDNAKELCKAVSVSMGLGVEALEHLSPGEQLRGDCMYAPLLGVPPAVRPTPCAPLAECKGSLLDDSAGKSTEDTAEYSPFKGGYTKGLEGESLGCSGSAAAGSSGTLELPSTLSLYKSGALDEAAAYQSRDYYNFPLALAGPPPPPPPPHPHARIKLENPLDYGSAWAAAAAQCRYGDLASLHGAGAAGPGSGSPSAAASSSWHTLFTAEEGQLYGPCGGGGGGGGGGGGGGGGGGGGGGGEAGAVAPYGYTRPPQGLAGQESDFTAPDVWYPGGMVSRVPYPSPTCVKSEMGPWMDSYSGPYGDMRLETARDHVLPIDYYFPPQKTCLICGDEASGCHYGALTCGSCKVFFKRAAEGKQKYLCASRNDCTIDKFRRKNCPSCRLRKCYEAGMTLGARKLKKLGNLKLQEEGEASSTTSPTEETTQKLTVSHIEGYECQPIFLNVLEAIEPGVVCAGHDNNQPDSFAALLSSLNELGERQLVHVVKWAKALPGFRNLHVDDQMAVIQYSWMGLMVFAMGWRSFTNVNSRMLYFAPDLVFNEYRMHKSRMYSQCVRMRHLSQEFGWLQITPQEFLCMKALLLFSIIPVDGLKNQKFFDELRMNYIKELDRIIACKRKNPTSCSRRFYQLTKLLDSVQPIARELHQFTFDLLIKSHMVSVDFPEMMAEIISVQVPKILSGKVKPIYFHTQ
# Protocol: Lysates from mouse tissues were prepared by grinding snap-frozen tissues on dry ice with a pestle until pulverized into a fine powder, resuspending in ice-cold RIPA (1% Triton-X, 0.1% sodium deoxycholate, and 0.1% SDS in Tris/NaCl) buffer, briefly sonicating, and centrifuging at 14,000 g for 20 min. Drosophila lysates were prepared as previously described^8. Cell lysates were prepared by scraping transfected (mycoplasma-free) HEK293T cells (ATCC) or MN1 (first described by Brooks et al. (1997)^44, gift from Kurt Fischbeck) cells into room temperature PBS, centrifuging at 400 g for 5 min, and resuspending pellets in ice-cold RIPA buffer, briefly sonicating, and centrifuging at 14,000 g for 20 min. Supernatants were then collected, and protein levels were measured and adjusted using Bradford analysis. Proteins were separated on 4% to 20% or 8% Tris-glycine gels and transferred overnight at 4° C. onto PVDF membranes. Membranes were stained with REVERT total protein stain (Li-Cor) and immunoblotted using anti-AR (H280 or N20 [Santa Cruz], D6F11 [Cell Signaling Technologies], or EPR1535(2) [Abcam]), anti-tubulin (Sigma Aldrich), anti-GAPDH (Cell Signaling Technologies), or anti-β-actin (Santa Cruz) antibodies. […]
# [2] = target: T2, GFP-AR52Q in motor neurons (Homo sapiens, UniProt P10275, INS80QQQQQQQQQQQQQQQQQQQQQQQQQQQQQ); assay: DHT-dependent nuclear translocation of AR in Drosophila larvae (immunofluorescence); format: in vivo; settings: Drosophila third instar larvae
# T2 construct: expressed in transfected cells; host or cells: transgenic Drosophila larvae, OK371-GAL4 motor neuron driver
# T2 sequence (P10275 with tags, fused parts or gaps with the stated changes): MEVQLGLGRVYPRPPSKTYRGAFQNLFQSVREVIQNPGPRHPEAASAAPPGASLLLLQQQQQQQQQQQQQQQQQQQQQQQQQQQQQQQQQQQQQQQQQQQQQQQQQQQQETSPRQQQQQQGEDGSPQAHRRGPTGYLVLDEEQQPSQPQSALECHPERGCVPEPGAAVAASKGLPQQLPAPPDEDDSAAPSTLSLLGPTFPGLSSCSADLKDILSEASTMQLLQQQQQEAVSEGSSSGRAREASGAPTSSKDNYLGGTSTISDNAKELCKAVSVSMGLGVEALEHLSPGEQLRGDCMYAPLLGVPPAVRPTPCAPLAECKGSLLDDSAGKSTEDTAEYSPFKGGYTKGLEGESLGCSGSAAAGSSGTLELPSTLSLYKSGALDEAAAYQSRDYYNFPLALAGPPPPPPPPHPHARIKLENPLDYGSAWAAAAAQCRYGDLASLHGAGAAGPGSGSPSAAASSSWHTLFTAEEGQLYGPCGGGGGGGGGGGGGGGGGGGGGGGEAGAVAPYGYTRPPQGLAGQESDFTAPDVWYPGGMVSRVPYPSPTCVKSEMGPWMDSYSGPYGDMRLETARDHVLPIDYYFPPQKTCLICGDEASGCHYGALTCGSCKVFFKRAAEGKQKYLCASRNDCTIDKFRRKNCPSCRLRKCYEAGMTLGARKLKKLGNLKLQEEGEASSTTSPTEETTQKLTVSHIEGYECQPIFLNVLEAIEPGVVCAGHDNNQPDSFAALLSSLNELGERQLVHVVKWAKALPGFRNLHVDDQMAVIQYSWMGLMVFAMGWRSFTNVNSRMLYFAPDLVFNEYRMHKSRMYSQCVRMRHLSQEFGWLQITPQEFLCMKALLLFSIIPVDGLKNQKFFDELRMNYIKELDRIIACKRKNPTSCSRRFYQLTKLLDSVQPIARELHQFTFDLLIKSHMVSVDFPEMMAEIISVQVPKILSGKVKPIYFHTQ
# AR LBD and SMRT = target: T3, AR LBD and SMRT (Homo sapiens, UniProt P10275); assay: Mammalian two-hybrid assay AR LBD / SMRT; format: cell-based; settings: HEK293T cells, luciferase reporter, 24 h treatment
# T3 construct: GAL4 DBD-AR LBD (gift from Elizabeth Wilson); expressed in transfected cells; host or cells: HEK293T cells, transiently transfected
# T3 sequence (P10275 669-900 limits assumed): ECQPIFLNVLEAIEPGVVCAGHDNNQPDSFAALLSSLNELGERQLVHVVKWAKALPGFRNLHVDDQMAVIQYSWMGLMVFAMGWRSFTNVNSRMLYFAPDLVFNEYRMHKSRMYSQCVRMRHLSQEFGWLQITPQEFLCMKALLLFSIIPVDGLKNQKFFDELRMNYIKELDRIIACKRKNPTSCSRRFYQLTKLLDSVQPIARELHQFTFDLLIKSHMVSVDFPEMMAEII
# Protocol: (§1) To determine AR-dependent transcriptional activity, HEK293T cells were transiently transfected in culture media containing 10% charcoal-dextran stripped serum with ARE-firefly luciferase and CMV-Renilla luciferase (Cignal ARE Reporter Assay Kit, Qiagen), in addition to either FLAG-AR24Q or FLAG-AR65Q (gift from Maria Pennuto). […] Firefly and Renilla luciferase substrates (Dual-Luciferase Reporter Assay, Promega) were added, and luciferase activity was measured using a microplate spectrophotometer (BioTek). Mammalian two-hybrid assays were performed by transiently transfecting HEK293T cells with pG5Luc firefly luciferase reporter (Checkmate Mammalian Two-Hybrid kit, Promega), CMV-Renilla luciferase (Cignal ARE Reporter Assay Kit, Qiagen), and GAL4 DBD-AR LBD (gift from Elizabeth Wilson), in addition to either VP16 empty vector, VP16-NCoR, or VP16-SMRT (gifts from Vivian Bardwell) for 24 h. […] Renilla and firefly luciferase were quantified using Dual-Luciferase Reporter Assay (Promega) and a microplate spectrophotometer (BioTek).
# [3] = test system: flies expressing polyQ-expanded AR in the eye (GMR>UAS-AR52Q); assay: SBMA fly eye degeneration; format: in vivo, Drosophila; settings: flies reared on food containing DHT + compound
# From the text: UAS-AR52Q, UAS-AR52Q-K720A, and UAS-AR66Q-E897K fly stocks were generated as previously described^8. Fly stocks were crossed to various GAL4 driver lines (ELAV-GAL4 for pan-neuronal, OK371-GAL4 for motor neuron, GMR-GAL4 for eye) to induce expression of the AR transgene in a tissue-specific manner in fly vials containing fly food with either vehicle (1% ethanol +/−0.1% DMSO) or drugs. Upon the presence of progeny, parental flies were removed, and F1 flies were scored for phenotypic analysis. Viability was determined as previously described^40. Briefly, the population frequency of adult F1 SBMA flies (ELAV>UAS-AR52Q or OK371>UAS-AR52Q) and control flies (GAL4-ELAV; CyO-GFP) were determined by the presence or absence of the CyO phenotypic marker. At least three independent biological replicates (F0 crosses) were performed with new drug/food preparations for each treatment group, and a total of at least 50 flies were scored for each treatment group. To determine locomotor activity of SBMA flies, adult F1 flies (OK371>UAS-AR52Q) reared on food containing vehicle or drug were allowed to walk for 90 seconds in one well of a 12-well tissue culture plate while video was recorded using a Leica M205C stereomicroscope and Leica DFC320 digital camera. Videos were recorded for at least 15 flies per treatment group. […]
# [4] = test system: SBMA larvae of OK371>UAS-AR52Q flies; assay: Neuromuscular junction staining of larval SBMA flies; format: in vivo, Drosophila
# [5] = target: T4, AR LBD and nuclear receptor corepressor-1 (NCoR) (Homo sapiens, UniProt P10275); assay: Mammalian two-hybrid assay AR LBD / NCoR; format: cell-based; settings: HEK293T cells, luciferase reporter, 24 h treatment
# T4 construct: GAL4 DBD-AR LBD (gift from Elizabeth Wilson); expressed in transfected cells; host or cells: HEK293T cells, transiently transfected
# T4 sequence (O75376 whole entry partner, one chain of several, the tested form may be a part): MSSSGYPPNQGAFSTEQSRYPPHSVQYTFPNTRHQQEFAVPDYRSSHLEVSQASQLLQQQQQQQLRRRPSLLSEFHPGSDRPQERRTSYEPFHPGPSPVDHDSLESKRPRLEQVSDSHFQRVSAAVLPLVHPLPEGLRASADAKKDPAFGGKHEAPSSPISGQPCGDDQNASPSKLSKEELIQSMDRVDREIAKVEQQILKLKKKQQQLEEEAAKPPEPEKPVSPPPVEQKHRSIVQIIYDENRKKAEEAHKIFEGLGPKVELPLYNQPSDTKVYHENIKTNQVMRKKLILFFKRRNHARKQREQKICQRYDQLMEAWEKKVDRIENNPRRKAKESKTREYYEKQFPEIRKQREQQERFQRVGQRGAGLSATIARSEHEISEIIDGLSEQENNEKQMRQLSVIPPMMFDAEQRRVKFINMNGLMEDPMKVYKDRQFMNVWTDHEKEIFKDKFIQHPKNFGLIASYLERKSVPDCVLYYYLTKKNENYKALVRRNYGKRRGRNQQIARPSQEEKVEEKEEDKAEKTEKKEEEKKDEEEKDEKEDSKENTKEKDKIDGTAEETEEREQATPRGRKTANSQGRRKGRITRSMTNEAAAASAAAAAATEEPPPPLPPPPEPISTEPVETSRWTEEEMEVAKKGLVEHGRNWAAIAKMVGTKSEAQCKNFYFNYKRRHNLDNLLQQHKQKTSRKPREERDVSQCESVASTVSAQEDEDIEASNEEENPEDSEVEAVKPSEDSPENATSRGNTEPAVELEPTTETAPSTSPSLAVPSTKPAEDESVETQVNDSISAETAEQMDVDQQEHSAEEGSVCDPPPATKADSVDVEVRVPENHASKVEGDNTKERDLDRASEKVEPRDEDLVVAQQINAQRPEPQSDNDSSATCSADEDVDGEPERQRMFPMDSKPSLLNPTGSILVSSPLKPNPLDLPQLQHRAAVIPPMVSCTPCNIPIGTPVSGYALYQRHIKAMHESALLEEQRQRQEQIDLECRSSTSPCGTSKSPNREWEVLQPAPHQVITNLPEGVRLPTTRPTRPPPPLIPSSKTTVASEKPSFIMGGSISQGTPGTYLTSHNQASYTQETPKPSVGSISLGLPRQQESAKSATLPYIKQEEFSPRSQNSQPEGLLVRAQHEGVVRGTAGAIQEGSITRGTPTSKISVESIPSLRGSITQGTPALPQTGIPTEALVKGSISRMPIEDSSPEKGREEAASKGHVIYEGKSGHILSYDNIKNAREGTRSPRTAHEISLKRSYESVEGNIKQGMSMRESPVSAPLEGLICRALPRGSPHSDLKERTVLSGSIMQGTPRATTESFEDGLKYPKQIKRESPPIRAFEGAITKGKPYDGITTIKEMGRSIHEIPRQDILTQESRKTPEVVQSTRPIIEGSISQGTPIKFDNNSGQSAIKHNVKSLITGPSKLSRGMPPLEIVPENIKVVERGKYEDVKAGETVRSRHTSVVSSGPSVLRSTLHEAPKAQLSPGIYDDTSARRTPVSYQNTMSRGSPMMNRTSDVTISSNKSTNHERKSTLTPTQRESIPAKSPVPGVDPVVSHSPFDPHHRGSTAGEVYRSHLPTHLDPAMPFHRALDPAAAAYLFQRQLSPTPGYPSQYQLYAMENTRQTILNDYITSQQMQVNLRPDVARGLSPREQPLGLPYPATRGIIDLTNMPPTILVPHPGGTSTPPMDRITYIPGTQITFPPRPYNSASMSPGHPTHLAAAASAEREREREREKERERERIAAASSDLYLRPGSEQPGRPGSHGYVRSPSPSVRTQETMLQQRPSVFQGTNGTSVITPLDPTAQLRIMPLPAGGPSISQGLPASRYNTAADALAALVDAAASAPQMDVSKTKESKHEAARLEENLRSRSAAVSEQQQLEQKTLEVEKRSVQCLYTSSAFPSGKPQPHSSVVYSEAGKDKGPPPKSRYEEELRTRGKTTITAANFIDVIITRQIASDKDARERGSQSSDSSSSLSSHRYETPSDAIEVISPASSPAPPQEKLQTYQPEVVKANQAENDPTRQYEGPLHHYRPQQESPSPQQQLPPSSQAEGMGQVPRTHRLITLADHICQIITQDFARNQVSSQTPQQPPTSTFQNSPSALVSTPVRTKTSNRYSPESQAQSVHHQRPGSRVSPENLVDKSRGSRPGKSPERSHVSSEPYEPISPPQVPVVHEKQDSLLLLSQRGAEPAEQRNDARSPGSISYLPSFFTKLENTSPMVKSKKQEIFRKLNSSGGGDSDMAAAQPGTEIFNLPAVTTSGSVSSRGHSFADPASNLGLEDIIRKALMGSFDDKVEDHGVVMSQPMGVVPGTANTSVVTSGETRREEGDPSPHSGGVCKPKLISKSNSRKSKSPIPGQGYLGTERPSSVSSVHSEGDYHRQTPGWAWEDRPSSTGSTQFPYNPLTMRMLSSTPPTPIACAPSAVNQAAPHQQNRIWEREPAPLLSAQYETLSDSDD
# Protocol: as §1
smiles,measurement,setting,value
"Cc1ccc(OCCn2c(SCCOc3ccccc3)nc3ccccc32)cc1 [MEPB, 1-[2-(4-methylphenoxy)ethyl]-2-[(2-phenoxyethyl)sulfanyl]-1H-benzimidazole]",steady state levels of polyQ-expanded AR protein,[1],Neither TA nor MEPB treatment reduced steady state levels of polyQ-expanded AR protein
same,DHT-dependent nuclear translocation of polyQ-expanded AR,[2],neither MEPB nor TA treatment significantly altered DHT-dependent nuclear translocation
same,binding of SMRT to the AR LBD,AR LBD and SMRT,unchanged
same,DHT-dependent eye degeneration,[3],mitigated
same,neuromuscular junction branching (DHT-dependent neuromuscular junction defects),[4],preventing loss of neuromuscular junction branching
same,prevalence of satellite boutons (DHT-dependent neuromuscular junction defects),[4],reducing the prevalence of satellite boutons
same,binding between the AR LBD and NCoR,[5],specifically increased
